Assay results taken from ChEMBL document CHEMBL1201862, “PubChem BioAssay data set” (2004).
The source made the active and inactive calls.

How the values were obtained:
[1] = T. cruzi growth inhibition in host cells, dose response, cell-based, plate reader, dry powder, set 2 (AID 652275); assay type: functional
[2] = mouse embryonic fibroblast toxicity – cell-based, plate reader, dry powder, set 2, cytotoxicity control, dose response (AID 652280); assay type: functional; details: NIH3T3
[3] = molecular target: T1, Low molecular weight phosphotyrosine protein phosphatase (Homo sapiens, UniProt P24666); assay type: functional; details: read-out: IC50_Mean
T1 sequence (P24666 whole entry): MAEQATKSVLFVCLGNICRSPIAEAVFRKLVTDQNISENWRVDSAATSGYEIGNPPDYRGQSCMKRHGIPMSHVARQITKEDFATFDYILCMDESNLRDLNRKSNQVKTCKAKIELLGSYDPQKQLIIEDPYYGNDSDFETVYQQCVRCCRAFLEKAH

[4] = molecular target: T2, Small ubiquitin-related modifier 1 (Homo sapiens, UniProt P63165); test: SUMO1 protein-protein binding blockers, potency – biochemical, FRET, dose response (AID 624383); assay type: functional; details: read-out: IC50_Mean
T2 sequence (P63165 whole entry): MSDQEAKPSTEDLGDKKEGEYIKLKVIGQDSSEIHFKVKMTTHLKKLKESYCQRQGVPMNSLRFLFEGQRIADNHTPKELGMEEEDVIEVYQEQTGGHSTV

[5] = molecular target: T3, Tyrosine-protein phosphatase non-receptor type 22 (Homo sapiens, UniProt Q9Y2R2); test: lymphoid phosphatase LYP inhibitors – biochemical, selectivity assay for STEP inhibitor project, dose response (AID 624241); assay type: functional
T3 sequence (Q9Y2R2 whole entry): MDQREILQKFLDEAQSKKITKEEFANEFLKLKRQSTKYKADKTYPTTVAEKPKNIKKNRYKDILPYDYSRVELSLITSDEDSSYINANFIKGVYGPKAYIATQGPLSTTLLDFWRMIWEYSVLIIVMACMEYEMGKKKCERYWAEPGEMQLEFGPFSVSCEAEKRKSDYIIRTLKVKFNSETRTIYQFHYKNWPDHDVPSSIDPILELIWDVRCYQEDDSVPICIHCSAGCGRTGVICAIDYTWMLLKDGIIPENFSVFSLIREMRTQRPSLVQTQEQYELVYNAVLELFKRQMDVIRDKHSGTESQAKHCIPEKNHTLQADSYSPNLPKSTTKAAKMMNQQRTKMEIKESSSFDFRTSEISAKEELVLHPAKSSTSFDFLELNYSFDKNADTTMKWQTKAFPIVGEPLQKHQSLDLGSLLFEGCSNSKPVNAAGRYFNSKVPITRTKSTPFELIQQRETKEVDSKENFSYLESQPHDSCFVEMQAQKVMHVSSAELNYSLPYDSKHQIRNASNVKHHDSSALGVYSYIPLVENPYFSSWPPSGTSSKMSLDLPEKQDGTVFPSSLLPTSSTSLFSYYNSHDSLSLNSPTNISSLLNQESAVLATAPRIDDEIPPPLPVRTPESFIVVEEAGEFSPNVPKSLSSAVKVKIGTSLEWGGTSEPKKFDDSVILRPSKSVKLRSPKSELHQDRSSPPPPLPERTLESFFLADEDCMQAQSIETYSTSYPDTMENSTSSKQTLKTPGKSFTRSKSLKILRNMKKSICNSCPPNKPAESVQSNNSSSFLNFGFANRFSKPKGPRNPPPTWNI

[6] = molecular target: Dual specificity protein phosphatase 3 (Homo sapiens, UniProt P51452); test: VHR phosphatase inhibition, dose response, selectivity assay for STEP inhibitor project, biochemical (AID 602374); assay type: functional; details: read-out: IC50_Mean
Chain of Dual specificity protein phosphatase 3 (P51452 whole entry, the tested form may be a part): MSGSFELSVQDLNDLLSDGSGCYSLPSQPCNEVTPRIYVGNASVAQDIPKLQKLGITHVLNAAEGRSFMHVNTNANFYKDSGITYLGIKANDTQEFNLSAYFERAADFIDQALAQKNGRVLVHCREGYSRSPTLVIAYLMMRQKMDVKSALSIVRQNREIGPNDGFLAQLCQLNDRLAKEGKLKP

[7] = molecular target: T4, Carboxy-terminal domain RNA polymerase II polypeptide A small phosphatase 1 (Homo sapiens, UniProt Q9GZU7); test: CTDSP1 inhibitors, concentration-response, biochemical, absorbance readout, ultra-high-throughput screen actives (AID 540297); assay type: functional
T4 sequence (Q9GZU7 whole entry): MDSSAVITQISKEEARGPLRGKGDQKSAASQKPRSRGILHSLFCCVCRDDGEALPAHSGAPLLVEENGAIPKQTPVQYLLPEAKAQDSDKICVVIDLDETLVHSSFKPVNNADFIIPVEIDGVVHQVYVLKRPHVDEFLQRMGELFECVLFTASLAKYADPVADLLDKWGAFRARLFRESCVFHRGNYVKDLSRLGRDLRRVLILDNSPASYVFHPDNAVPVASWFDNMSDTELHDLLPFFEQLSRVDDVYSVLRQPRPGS

[8] = molecular target: T1, Low molecular weight phosphotyrosine protein phosphatase; assay type: functional; details: read-out: IC50_Mean; remark: listed apart in the source
[9] = molecular target: Tyrosine-protein phosphatase non-receptor type 11 (Homo sapiens, UniProt Q06124); test: PTPN11 enzyme inhibitors – biochemical, selectivity assay for STEP inhibitor project, dose response (AID 602367); assay type: functional; details: read-out: IC50_Mean
Chain of Tyrosine-protein phosphatase non-receptor type 11 (Q06124 whole entry): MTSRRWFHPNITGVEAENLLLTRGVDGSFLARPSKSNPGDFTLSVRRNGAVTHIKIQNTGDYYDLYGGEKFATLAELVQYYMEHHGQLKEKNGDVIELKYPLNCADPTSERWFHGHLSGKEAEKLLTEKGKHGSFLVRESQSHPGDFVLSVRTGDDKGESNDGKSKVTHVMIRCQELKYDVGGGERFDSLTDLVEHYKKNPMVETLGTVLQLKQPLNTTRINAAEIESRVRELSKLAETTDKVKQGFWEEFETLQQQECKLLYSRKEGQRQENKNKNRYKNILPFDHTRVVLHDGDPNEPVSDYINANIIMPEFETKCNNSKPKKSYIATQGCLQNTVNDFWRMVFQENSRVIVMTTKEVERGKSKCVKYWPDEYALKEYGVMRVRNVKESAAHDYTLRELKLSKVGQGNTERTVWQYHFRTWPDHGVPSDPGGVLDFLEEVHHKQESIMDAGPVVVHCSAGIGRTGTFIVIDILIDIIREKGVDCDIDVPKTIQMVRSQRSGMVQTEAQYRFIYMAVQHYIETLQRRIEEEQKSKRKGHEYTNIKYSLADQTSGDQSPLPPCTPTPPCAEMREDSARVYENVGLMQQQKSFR

[10] = molecular target: Tyrosine-protein phosphatase non-receptor type 5 (Homo sapiens, UniProt P54829); test: PTPN5 enzyme inhibition – biochemical, fluorescence intensity, uHTS hits, confirmation (AID 602372); assay type: functional; details: read-out: IC50_Mean
Chain of Tyrosine-protein phosphatase non-receptor type 5 (P54829 whole entry): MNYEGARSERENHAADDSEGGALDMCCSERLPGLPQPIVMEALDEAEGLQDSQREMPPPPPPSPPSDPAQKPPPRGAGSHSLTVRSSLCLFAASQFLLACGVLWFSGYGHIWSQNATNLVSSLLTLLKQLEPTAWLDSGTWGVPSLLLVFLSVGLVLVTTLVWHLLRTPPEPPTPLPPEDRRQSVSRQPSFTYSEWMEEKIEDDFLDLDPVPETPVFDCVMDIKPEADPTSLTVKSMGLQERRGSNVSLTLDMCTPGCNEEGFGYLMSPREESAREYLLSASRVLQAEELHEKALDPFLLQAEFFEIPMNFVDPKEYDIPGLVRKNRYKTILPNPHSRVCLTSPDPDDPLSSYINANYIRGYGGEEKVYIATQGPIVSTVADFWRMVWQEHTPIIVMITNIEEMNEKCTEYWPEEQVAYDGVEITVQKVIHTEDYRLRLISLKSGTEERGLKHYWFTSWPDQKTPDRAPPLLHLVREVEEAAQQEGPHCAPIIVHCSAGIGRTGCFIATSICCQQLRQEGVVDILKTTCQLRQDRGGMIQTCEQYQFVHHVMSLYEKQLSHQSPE

[11] = molecular target: T2, Small ubiquitin-related modifier 1; test: SUMO1 protein interaction blockers, potency – biochemical, fluorescence polarization, uHTS hits, dose response (AID 624382); assay type: functional; details: read-out: IC50_Mean
[12] = HGIII-sPLA2 enzyme inhibition potency – biochemical, QFRET, IC50, dose response (AID 743457);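 further: green fluorescence rise as the enzyme cleaves BODIPY PC-A2 in liposomes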
[13] = A549 cell cytotoxicity, dose response, cytotoxicity control, plate reader, cherry-pick, antagonist series (AID 743412); assay type: functional, cell-based
[14] = blockade of melanocortin 4 receptor signaling – cell-based, plate reader, cherry pick, counter-screen for LGR2 antagonist project, dose response (AID 743444); assay type: functional;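 further: transfected HEK 293 cells stimulated with alpha-MSH peptide; potency of inhibitors of the alpha-MSH evoked signal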
[15] = blockers of bursicon-stimulated LGR2 cAMP reporter – cell-based, HEK293, CRE-luciferase reporter, cherry pick, set 2, dose response (AID 743343); assay type: functional;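 further: transfected cells were stimulated with diluted bursicon conditioned medium after compound addition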
[16] = viability loss in HEK293 cells – cell-based, plate reader, cherry-picked samples, cytotoxicity control, dose response (AID 743446); assay type: functional
[17] = toxicity toward HepG2 liver cells – cell-based, plate reader, cherry-pick, antagonist series, cytotoxicity control, dose response (AID 743416); assay type: functional
[18] = molecular target: T5, Heat shock factor protein 1 (Mus musculus, UniProt P38532); test: decrease of HSF1-responsive luciferase luminescence – cell-based, NIH3T3, dose retest, confirmation (AID 2382); assay type: functional;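 further: NIH3T3 fibroblasts with HSF1-driven luciferase reporter stressed by proteasome inhibitor MG132; luminescence from HSF1-driven luciferase expression after 8 hours of MG132 stress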
T5 sequence (P38532 whole entry): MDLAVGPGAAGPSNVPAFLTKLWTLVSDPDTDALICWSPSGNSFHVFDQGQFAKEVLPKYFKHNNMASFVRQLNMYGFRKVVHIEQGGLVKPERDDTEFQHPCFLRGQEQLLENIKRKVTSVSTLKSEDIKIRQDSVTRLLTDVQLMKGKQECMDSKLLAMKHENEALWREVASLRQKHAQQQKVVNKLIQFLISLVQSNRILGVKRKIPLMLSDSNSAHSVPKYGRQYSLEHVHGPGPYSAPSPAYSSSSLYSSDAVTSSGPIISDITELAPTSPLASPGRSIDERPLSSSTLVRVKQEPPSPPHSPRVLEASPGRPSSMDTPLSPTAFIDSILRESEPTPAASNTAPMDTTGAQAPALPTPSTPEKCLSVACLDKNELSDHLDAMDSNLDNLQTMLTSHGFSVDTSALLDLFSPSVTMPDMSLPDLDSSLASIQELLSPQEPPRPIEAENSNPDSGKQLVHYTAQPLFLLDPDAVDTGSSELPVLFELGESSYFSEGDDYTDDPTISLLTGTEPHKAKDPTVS

[19] = toxicity to human hepatoma HepG2 cells – cell-based, cherry-picked samples, cytotoxicity control, dose response (AID 1159577); assay type: functional
[20] = P. falciparum Dd2 growth inhibitors, dose response, SYBR Green, cherry-picked samples (AID 1159567); assay type: functional, cell-based
[21] = IGROV1 cell killing – plate reader, dry powder samples, PAX8 inhibitor project, dose response (AID 743043); assay type: functional, cell-based; details: IGROV-1
Paired box protein Pax-8 = Paired box protein Pax-8 (Homo sapiens, UniProt Q06710); test: PAX8 transcriptional activity inhibition in RMG-I – RMG-I cells, luciferase, cherry-pick, dose response (AID 687027); assay type: functional, cell-based;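 further: luciferase reporter driven by Pax8 target thyroperoxidase promoter measured by SteadyGlo luminescence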
Chain of Paired box protein Pax-8 (Q06710 whole entry): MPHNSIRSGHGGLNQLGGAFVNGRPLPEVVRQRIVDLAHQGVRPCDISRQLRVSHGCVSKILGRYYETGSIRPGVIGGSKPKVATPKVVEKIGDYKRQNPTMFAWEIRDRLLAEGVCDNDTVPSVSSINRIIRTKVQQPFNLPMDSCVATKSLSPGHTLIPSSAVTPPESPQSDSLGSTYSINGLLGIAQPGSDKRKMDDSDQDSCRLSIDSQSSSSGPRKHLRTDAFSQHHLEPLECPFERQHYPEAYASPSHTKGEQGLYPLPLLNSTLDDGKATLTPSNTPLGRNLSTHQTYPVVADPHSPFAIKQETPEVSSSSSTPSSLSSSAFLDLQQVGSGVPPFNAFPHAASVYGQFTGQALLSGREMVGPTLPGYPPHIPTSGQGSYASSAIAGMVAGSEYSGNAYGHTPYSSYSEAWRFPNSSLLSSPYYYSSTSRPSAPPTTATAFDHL

Beta-galactosidase = Beta-galactosidase (Escherichia coli, UniProt Q8VNN2); test: Dose response counterscreen for EBI2 assay utilizing the enzyme, b-galactosidase.; assay type: functional
Chain of Beta-galactosidase (Q8VNN2 whole entry): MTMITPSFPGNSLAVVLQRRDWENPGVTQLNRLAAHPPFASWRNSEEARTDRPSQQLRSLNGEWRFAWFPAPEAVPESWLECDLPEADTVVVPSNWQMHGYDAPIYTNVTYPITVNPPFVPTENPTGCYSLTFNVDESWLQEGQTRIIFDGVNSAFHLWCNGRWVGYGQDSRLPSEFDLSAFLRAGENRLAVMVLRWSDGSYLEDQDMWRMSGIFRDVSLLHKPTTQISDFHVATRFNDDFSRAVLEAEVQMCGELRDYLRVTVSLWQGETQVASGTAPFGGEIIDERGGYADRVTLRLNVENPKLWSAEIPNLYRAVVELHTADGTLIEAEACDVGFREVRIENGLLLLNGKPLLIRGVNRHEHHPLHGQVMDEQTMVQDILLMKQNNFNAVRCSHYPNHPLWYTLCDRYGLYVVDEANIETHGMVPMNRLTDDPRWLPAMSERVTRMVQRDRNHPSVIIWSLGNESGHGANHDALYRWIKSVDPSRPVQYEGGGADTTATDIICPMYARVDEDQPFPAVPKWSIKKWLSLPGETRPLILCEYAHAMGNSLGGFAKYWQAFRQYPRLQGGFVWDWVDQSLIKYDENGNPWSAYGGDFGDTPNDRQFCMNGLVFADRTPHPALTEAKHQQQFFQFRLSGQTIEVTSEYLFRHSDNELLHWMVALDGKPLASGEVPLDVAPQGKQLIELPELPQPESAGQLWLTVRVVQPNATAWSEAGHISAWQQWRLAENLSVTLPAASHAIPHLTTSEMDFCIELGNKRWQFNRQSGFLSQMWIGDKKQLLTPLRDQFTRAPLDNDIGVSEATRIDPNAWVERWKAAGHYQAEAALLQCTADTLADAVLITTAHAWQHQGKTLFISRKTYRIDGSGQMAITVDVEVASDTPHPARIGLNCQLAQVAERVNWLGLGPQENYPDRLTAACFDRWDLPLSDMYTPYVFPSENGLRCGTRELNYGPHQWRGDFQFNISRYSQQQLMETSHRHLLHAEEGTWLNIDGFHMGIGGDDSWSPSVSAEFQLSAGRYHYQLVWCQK

[22] = molecular target: T5, Heat shock factor protein 1; test: enhancement of HSF1-driven luciferase signal – cell-based, NIH3T3, luminescence, dose retest, confirmation (AID 435004); assay type: functional;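 further: stress induced by proteasome inhibitor MG132 added 30 min after compound; luciferase reporter driven by HSF1 response element in NIH3T3 cells; actives raise luminescence as potentiators of the MG132 stress response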
[23] = molecular target: Long-chain-fatty-acid--AMP ligase FadD28 (Mycobacterium tuberculosis, UniProt P9WQ59); test: Fluorescence polarization aasay to screen for inhibitors that compete for the binding of FadD28 to a bisubstrate Measured in Biochemical System Using Plate Reader - 2147-01_Inhibitor_Dose_CherryPick_Activity.; assay type: functional, Mycobacterium tuberculosis H37Rv
Chain of Long-chain-fatty-acid--AMP ligase FadD28 (P9WQ59 whole entry): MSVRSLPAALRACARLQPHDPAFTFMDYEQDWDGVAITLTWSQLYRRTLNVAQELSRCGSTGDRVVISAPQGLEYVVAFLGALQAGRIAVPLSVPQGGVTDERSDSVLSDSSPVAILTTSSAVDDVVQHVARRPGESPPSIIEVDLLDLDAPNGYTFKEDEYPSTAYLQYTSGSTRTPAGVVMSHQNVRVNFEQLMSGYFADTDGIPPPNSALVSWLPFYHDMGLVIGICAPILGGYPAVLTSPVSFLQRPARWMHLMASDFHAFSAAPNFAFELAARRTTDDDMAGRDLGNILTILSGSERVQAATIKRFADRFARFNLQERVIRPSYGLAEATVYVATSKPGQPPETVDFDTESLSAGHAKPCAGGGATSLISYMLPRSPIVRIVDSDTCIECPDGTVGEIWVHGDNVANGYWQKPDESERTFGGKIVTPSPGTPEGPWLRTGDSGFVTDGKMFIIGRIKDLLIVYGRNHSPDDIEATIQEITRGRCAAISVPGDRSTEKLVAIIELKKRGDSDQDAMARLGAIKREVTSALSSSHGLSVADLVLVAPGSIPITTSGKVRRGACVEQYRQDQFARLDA

[24] = general mammalian cell viability loss – activator set, cherry-pick, cytotoxicity control for miR-122 modulator project, dose response (AID 720690); assay type: functional, cell-based;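 further: HEK293T human cells scored for general mammalian cytotoxicity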
[25] = general mammalian cell viability loss – inhibitor set, cherry-pick, set 2, cytotoxicity control for miR-122 modulator project, dose response (AID 720697); assay type: functional, cell-based
[26] = molecular target: T6, Short transient receptor potential channel 4 (Mus musculus, UniProt Q9QUQ5); test: calcium entry via TRPC4 opening agents – cell-based, HEK293 TRPC4/mu-opioid, Fluo-4 calcium, dose response (AID 434937); assay type: functional
T6 sequence (Q9QUQ5 whole entry): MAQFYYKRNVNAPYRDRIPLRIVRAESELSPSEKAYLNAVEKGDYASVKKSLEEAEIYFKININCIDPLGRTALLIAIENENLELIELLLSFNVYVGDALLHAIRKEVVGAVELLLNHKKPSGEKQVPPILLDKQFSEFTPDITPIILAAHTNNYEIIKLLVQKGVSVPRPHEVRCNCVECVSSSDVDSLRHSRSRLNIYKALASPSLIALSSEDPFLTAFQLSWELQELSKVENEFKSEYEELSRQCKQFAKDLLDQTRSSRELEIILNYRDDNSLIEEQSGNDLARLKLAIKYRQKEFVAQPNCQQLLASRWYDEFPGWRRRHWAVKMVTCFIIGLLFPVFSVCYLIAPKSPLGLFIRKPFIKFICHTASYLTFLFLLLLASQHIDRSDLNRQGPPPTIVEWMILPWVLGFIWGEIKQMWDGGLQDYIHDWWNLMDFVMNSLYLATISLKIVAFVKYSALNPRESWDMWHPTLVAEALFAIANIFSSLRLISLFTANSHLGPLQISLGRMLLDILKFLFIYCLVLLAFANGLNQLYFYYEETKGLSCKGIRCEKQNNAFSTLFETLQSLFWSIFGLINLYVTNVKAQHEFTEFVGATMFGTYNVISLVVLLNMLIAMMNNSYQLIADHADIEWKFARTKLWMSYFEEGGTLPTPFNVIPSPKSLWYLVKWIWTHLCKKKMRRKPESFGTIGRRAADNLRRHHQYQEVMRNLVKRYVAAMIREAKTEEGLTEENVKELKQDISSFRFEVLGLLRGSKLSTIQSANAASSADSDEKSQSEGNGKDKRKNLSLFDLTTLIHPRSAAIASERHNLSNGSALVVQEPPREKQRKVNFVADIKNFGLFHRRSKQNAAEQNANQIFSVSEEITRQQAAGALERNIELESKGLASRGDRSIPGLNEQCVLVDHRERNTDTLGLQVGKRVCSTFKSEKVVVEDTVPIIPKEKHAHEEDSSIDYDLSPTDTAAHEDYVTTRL

INS1 = test: INS-1E survival protection against cytokine death – cell-based, luminescence, retest, dose response (AID 449756); assay type: functional; details: Rattus norvegicus;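 further: cell death triggered by IL-1 beta plus TNF-alpha plus IFN-gamma mixture; protective hits raise ATP signal compared with cytokine alone wells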
[27] = Luminescence Cell-Based Dose Retest to Confirm Inhibitors of Cancer Stem Cells. [Related pubchem assays (depositor defined):AID2717, AID2721]; assay type: functional; details: Homo sapiens
HEK293 = test: EBV LMP1 TES2 canonical NF-kB signalling blockers – cell-based, HEK293, luciferase, cherry-pick, dose response (AID 588343); assay type: functional; details: Homo sapiens

## CC(C)N1C[C@@H](CN(C)Cc2ccc(Oc3ccccc3)cc2)Oc2c(NC(=O)c3ccncc3)cccc2C1=O
[1]
  AC50: 0.00223 µM (active)
[2]
  AC50: 2.36 µM (active)

## Cc1cc(C(=O)N/N=C/c2ccc(-c3ccc([N+](=O)[O-])cc3Cl)o2)[nH]n1
[3]
  IC50: > 80 µM (inactive)
[4]
  IC50: 13.8 µM (active)
[5]
  IC50: > 100 µM (inactive)
[6]
  IC50: 1.36 µM (active)
[7]
  IC50: 7.05 µM (active)
[8]
  IC50: 19 µM (active)
[9]
  IC50: 3.42 µM (active)
[10]
  IC50: 6.83 µM (active)
[11]
  IC50: > 66.6 µM (inactive)

## O=C(NN=C(S)Nc1ccc(F)cc1)[C@H]1C[C@@H]1c1ccccc1
[12]
  IC50: > 122 µM (inactive)

## O=C(O)c1ccc2nc(-c3ccccc3)sc2c1
[13]
  AC50: > 52 µM (inactive)
[14]
  AC50: 3.35 µM (active)
[15]
  AC50: 3.7 µM (active)
[16]
  AC50: > 52 µM (inactive)
[17]
  AC50: > 52 µM (inactive)
[18]
  EC50: 5.85 µM (active)

## C[C@@H]1CN([C@@H](C)CO)C(=O)Cc2cc(NC(=O)Nc3ccccc3)ccc2O[C@H]1CN(C)Cc1ccc(Oc2ccccc2)cc1
[19]
  AC50: 12.9 µM (active)
[20]
  AC50: 1.05 µM (active)
[21]
  AC50: 55.6 µM (active)
Paired box protein Pax-8
  AC50: 9.84 µM (active)

## CCn1cc(C(=O)NN)c(=O)c2cc(F)c(NC3CCCCC3)cc21
Beta-galactosidase
  IC50: > 80 µM (inactive)
[22]
  EC50: > 260 µM (inactive)

## CCn1c(C)cc(/C=C2\NC(=O)N(CC(=O)Nc3cccc(C)c3)C2=O)c1C
[23]
  AC50: 77.2 µM (active)

## COc1ccc(Cl)cc1N=C(S)N(CCCN1CCOCC1)Cc1cn(C)c2ccccc12
[5]
  IC50: 38.5 µM (inactive)
[6]
  IC50: 0.754 µM (active)
[9]
  IC50: 2.07 µM (active)
[10]
  IC50: 13.9 µM (active)

## FC(F)(F)c1cnc(N2CCCN(C(S)=Nc3ccccc3)CC2)c(Cl)c1
[24]
  AC50: 26.9 µM (active)
[25]
  AC50: 3.78 µM (active)
[26]
  EC50: 0.421 µM (active)

## Cc1cc(C)nc(SCc2ccc(C(=O)N/N=C/c3cccc(O)c3O)cc2)n1
[12]
  IC50: > 122 µM (inactive)
INS1
  AC50: 2.22 µM (active)
[27]
  AC50: 3.83 µM (active)
HEK293
  AC50: 9.36 µM (active)

## CC(C)N1CC[C@@H](CN(C)Cc2ccc(Oc3ccccc3)cc2)Oc2c(NC(=O)c3ccncc3)cccc2C1=O
[1]
  AC50: 0.0195 µM (active)
[2]
  AC50: 23.4 µM (active)
